“Also recorded” adds a separate entry of the source.
Assays:
3T3-L1 adipocytes [1] = assay: Adipocyte (3T3-L1) reducing effect, MTT assay; format: cell-based
Protocol: Tests were performed to compare the adipocyte reducing activity of the PPC single composition and the PPC composition solubilized with bile acids. Differentiated 3T3L-1 adipocyte lines were used to observe adipocyte reduction activity, and cell viability was monitored by MTT assay. […] Materials and methods employed in the following experiments are described below. In the following, % of the composition refers to % (w/v).
The specific test methods are as follows. […] The cells were washed twice with PBS, treated with MTT reagent (50 μl) and left at 37° C. for 2 hours. After removing the supernatant, MTT formazan crystals were dissolved in DMSO and the absorbance was measured at 540 nm using a microplate reader.
The 3T3-L1 adipocyte (ATCC) was cultured in Dulbecco's modified eagle medium (DMEM) (Invitrogen) supplemented with 10% fetal bovine serum, 100 units/ml penicillin and 100 μg/ml streptomycin under the condition of 5% CO2 and 37° C. […] Subsequently, the medium was replaced with DMEM medium containing 1 μg/ml insulin (Sigma), and the culture medium was maintained and changed every 2 to 3 days until the degree of differentiation reaches maximum. If it took more than 7 days, the cells were kept in normal DMEM culture medium until starting the tests. […] After the cells were incubated for 3 hours under the condition of 37° C. and 5% CO2, the MTT solution was removed.

[2] = Formulation stability of PPC injectable preparations: property, transparency, particle size, pH
[3] = system: tissues of the injected area (rat paw); assay: H&E staining histological test (inflammation) of injected rat paw; format: in vivo, Sprague Dawley rats; details: for degree of inflammation (H&E) in words: rats sacrificed at 3 hours, injected paw
Protocol: The tissues of the injected area were dissected, fixed with 10% formalin, and then the specimen was prepared and images were captured using an optical microscope. The degree of inflammation was evaluated as follows.

[4] = system: Caspase 3 in 3T3-L1 adipocytes; assay: Caspase 3 activity assay; format: cell-based; details: 0-48 hours
Protocol: The Caspase 3 activity assay was performed with the test materials to determine whether the cell death in the result of MTT assay was due to necrosis or apoptosis. The Caspase 3 specifically increases when apoptosis occurs and is a marker of apoptosis. […] The cells were then treated with 50 ul of cell lysis buffer (10 mM Tris-HCl, 10 mM NaH2PO4/NaHPO4, pH 7.5, 130 mM NaCl, 1% Triton X-100 and 10 mM sodium pyrophosphate) and left at 4° C. for […]. The supernatant was collected by centrifugation at 1000× rpm for 1 minute, and protein quantification was performed by BCA method. The 50 μl of reaction buffer (4 mM HEPES, pH 7.5, 10% glycerol, 2 mM dithiothreitol) and 0.5 μl of 4 mM DEVD-p-NA were added to each sample and reacted at 37° C. for 1 hour. Then wavelength was measured with a […] at 405 nm.

sole of the rat paws = assay: Measurement of skin lesion (erythema) on rat paw; format: in vivo, Sprague Dawley rats; details: for skin lesion (erythema) in words: 2 hours after administration;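 for grade of skin lesion (erythema), 1 hour after administration: grades − to ++++ mean no to extremely severe erythema versus before injection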;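 for grade of skin lesion (erythema), 2 hours after administration: grades − to ++++ mean no to extremely severe erythema versus before injection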;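 for grade of skin lesion (erythema), Immediately after administration: grades − to ++++ mean no to extremely severe erythema versus before injection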
Procedure, shortened: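 Male Sprague Dawley rats (6 weeks, 170–200 g) received 0.1 ml test composition or PBS injected into the paw. Paw thickness measured by caliper before, immediately after, and 1 or 2 h post-injection; sole lesions photographed and graded 0–4.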

3T3-L1 adipocytes [5] = assay: Lipolysis assay (glycerol release); format: cell-based; details: 48 hours; listed as GCA single
Protocol: The glycerol activity assay was performed with the test materials to determine whether the cell death in the MTT assay was due to necrosis or lipolysis. Glycerol is a specific marker that increases when fat breaks down. Abcam Lipolysis Assay Kit (Colorimetric) was used according to the manufacturer's manual, and the method of the test was as follows: […] And then the lysis was induced. […] After adding the glycerol assay complex (50 μl) thereto, the solution was incubated at room temperature for 30 minutes. Absorbance was measured at OD 570 (using standard curve for absolute determination).

paw of the rats = assay: Rat paw edema; format: in vivo, Sprague Dawley rats; details: for degree of edema in words: 2 hours after administration, rat paw; for degree of edema, 1 hour after administration / degree of edema, 2 hours after administration / degree of edema, Immediately after administration: 0.1 ml into rat paw
Procedure, shortened: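 Male Sprague Dawley rats (6 weeks old, 170–200 g) received 0.1 ml of PBS or test composition into the paw. Paw thickness measured by caliper before, immediately after, and 1 or 2 h post-injection; edema graded 0–4, with injection-site skin lesions photographed.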

inguinal fat pad = details: 0.2 ml s.c. once into inguinal fat pad, 8 days post-injection
[6] = bile acid single composition 1.0% (w/v)
[7] = bile acid single composition 2.5% (w/v)
[8] = bile acid single composition 5.0% (w/v)
[9] = bile acid single composition 7.5% (w/v)

With `C[C@H](CCC(=O)NCC(=O)O)[C@H]1CC[C@H]2[C@@H]3[C@H](O)C[C@@H]4C[C@H](O)CC[C@]4(C)[C@H]3C[C@H](O)[C@]12C` [GCA, 2-[[(4R)-4-[(3R,5S,7R,8R,9S,10S,12S,13R,14S,17R)-3,7,12-trihydroxy-10,13-dimethyl-2,3,4,5,6,7,8,9,11,12,14,15,16,17-tetradecahydro-1H-cyclopenta[a]phenanthren-17-yl]pentanoyl]amino]acetic acid] the “adipocyte viability / adipocyte-reducing activity” value (3T3-L1 adipocytes [1]; 24 to 96 hours, various concentrations) was “reduced adipocyte viability in time and concentration dependent manner”, the “adipocyte-reducing effect at the same PPC concentration” value (3T3-L1 adipocytes [1]; after 96 hours, FIGS. 7F to 7H) was “lower adipocyte-reducing effect than PPC+GCA” and the “minimum molar ratio to PPC for a clear solution and mixed micelle of 10 nm or less” value [2] was 0.76. For the same compound, the “bile acid concentration at which stable injectable preparations can be made” value ([2]; based on PPC 5.0%) was no less than 2.2%, the “Inflammation (H&E), BA % (w/v) 1.0” value ([3]; bile acid single composition 1.0% (w/v), injected rat paw) was “+” and the “Inflammation (H&E), BA % (w/v) 2.5” value ([3]; bile acid single composition 2.5% (w/v), injected rat paw) was “++”. The “Inflammation (H&E), BA % (w/v) 5.0” value ([3]; bile acid single composition 5.0% (w/v), injected rat paw) was “++”, the “Inflammation (H&E), BA % (w/v) 7.5” value ([3]; bile acid single composition 7.5% (w/v), injected rat paw) was “++” and the “degree of inflammation (H&E) in words” value ([3]; listed as GCA 1.0%) was “Mild”. The “degree of inflammation (H&E) in words” value ([3]; listed as GCA 2.5%) was “moderate”, the caspase-3 activity [4] was “no time or concentration-dependent change” and the “skin lesion (erythema) in words” value (sole of the rat paws; listed as GCA 1.0%) was “None”. The “skin lesion (erythema) in words” value (sole of the rat paws; listed as GCA 2.5%) was “Mild”, the “skin lesion (erythema) in words” value (sole of the rat paws; listed as GCA 5.0%) was “Mild” and the “skin lesion (erythema) in words” value (sole of the rat paws; listed as GCA 7.5%) was “Moderate”. For the same compound, the “grade of skin lesion (erythema), 1 hour after administration” value (“grade of skin lesion (erythema), 1 hour” below) (sole of the rat paws; [6]) was “−”, the “grade of skin lesion (erythema), 2 hours after administration” value (shortened to “grade of skin lesion (erythema), 2 hours”) (sole of the rat paws; [6]) was “−” and the “grade of skin lesion (erythema), Immediately after administration” value (from here on “grade … Immediately after administration”) (sole of the rat paws; [6]) was “−”. The “grade of skin lesion (erythema), 1 hour” value (sole of the rat paws; [7]) was “+”, the “grade of skin lesion (erythema), 2 hours” value (sole of the rat paws; [7]) was “+” and the “grade … Immediately after administration” value (sole of the rat paws; [7]) was “+”. For the same compound, the “grade of skin lesion (erythema), 1 hour” value (sole of the rat paws; [8]) was “+”, the “grade of skin lesion (erythema), 2 hours” value (sole of the rat paws; [8]) was “+” and the “grade … Immediately after administration” value (sole of the rat paws; [8]) was “+”. The “grade of skin lesion (erythema), 1 hour” value (sole of the rat paws; [9]) was “++”, the “grade of skin lesion (erythema), 2 hours” value (sole of the rat paws; [9]) was “++” and the “grade … Immediately after administration” value (sole of the rat paws; [9]) was “+”. The “glycerol release / cytolytic activity” value (3T3-L1 adipocytes [5]) was “slightly higher cytolytic activity than at 24 hours; also recorded: slightly higher cytolytic activity than that of 24 hours”, the “degree of edema in words” value (paw of the rats; listed as GCA 1.0%) was “Mild and mild” and the “degree of edema in words” value (paw of the rats; listed as GCA 2.5%) was “moderate”. The “degree of edema in words” value (paw of the rats; listed as GCA 5.0%) was “Moderate”, the “degree of edema, 1 hour after administration” value (“degree of edema, 1 hour” for short) (paw of the rats; [6]) was “+ (mild edema [+, (the degree of swelling was 1-20% compared to before the injection)])” and the “degree of edema, 2 hours after administration” value (“degree of edema, 2 hours” below) (paw of the rats; [6]) was “+ (mild edema [+, (the degree of swelling was 1-20% compared to before the injection)])”. The “degree of edema, Immediately after administration” value (“degree of edema, Immediately” below) (paw of the rats; [6]) was “+ (mild edema [+, (the degree of swelling was 1-20% compared to before the injection)])”, the “degree of edema, 1 hour” value (paw of the rats; [7]) was “++ (moderate edema [++, (the degree of swelling was 20-40% compared to before the injection)])” and the “degree of edema, 2 hours” value (paw of the rats; [7]) was “++ (moderate edema [++, (the degree of swelling was 20-40% compared to before the injection)])”. The “degree of edema, Immediately” value (paw of the rats; [7]) was “++ (moderate edema [++, (the degree of swelling was 20-40% compared to before the injection)])”, the “degree of edema, 1 hour” value (paw of the rats; [8]) was “++ (moderate edema [++, (the degree of swelling was 20-40% compared to before the injection)])” and the “degree of edema, 2 hours” value (paw of the rats; [8]) was “++ (moderate edema [++, (the degree of swelling was 20-40% compared to before the injection)])”. For the same compound, the “degree of edema, Immediately” value (paw of the rats; [8]) was “++ (moderate edema [++, (the degree of swelling was 20-40% compared to before the injection)])”, the “degree of edema, 1 hour” value (paw of the rats; [9]) was “++++ (extremely severe edema [++++, (the degree of swelling was 60% or more compared to before the injection)])” and the “degree of edema, 2 hours” value (paw of the rats; [9]) was “++++ (extremely severe edema [++++, (the degree of swelling was 60% or more compared to before the injection)])”. For the same compound, the “degree of edema, Immediately” value (paw of the rats; [9]) was “++ (moderate edema [++, (the degree of swelling was 20-40% compared to before the injection)])”, the “histological change of adipocytes in fat tissue” value (inguinal fat pad) was “clear cell membrane boundary and a well-formed cell shape” and the “inflammation at the site of administration, dermal and epidermal tissues” value (inguinal fat pad) was “inflammation was clearly observed”.
